Drawing on US8580829B2 (Boehringer Ingelheim International GmbH, priority 2010, dated 2013), this text covers IC50 for 28 compounds.

Assay [1] deals with synthesis of LTB4 in human whole blood. The assay is described as follows: human whole blood LTB4 production inhibition assay. Type of assay: cell-based. The settings on record: Homo sapiens, heparinized human whole blood, calcimycin 20 μM; read-out: hWB LTB4 IC50. An outline of the steps: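 Steps: compound plus heparinized human whole blood, 15 min at 37° C; add calcimycin to 20 μM final; incubate another 30 min at 37° C; centrifuge at low speed and collect plasma; measure LTB4 with a homogeneous time-resolved fluorescence immunoassay.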

Assay [2] has as its target T1, recombinant human FLAP protein (Homo sapiens, UniProt P20292).
T1 construct: made in house; host or cells: Sf9 insect cells (100,000 x g membrane fraction)
T1 sequence (P20292 1-161): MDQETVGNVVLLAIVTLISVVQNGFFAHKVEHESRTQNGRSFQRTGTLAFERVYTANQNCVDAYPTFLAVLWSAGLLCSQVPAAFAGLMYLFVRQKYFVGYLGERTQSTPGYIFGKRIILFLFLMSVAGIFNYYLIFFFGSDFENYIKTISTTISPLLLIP
The assay is described as follows: FLAP binding assay (Scintillation Proximity Assay, displacement of [125I]L-691,831). The settings on record: recombinant human FLAP membranes, [125I]L-691,831 probe; read-out: FLAP SPA IC50. An outline of the steps:
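WGA scintillation proximity beads were stirred 1 h with 5 μg of FLAP-containing membrane protein. The membranes came from baculovirus Sf9 cells, Dounce-lysed and spun to a 100,000×g pellet in buffer at pH 7.5.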

As usually defined, the IC50 is the concentration needed to halve the response being measured. In the case of `Cc1ncc(-c2nc(C3(c4ccc(-c5cnc(N)nc5)cc4)CCC3)no2)cn1` [Example 165, 5-(4-{1-[5-(2-Methyl-pyrimidin-5-yl)-1,2,4-oxadiazol-3-yl]-cyclobutyl}-phenyl)-pyrimidin-2-ylamine], the results for the IC50 in assay [1] and in assay [2] were 450 nM and 6 nM, respectively.

On to `Cn1cc(-c2nc(C3(c4ccc(-c5cnc6[nH]ccc6c5)cc4)CCC3)no2)cn1` [Example 273, 5-(4-{1-[5-(1-Methyl-1H-pyrazol-4-yl)-[1,2,4]oxadiazol-3-yl]-cyclobutyl}-phenyl)-1H-pyrrolo[2,3-b]pyridine], for which the results for the IC50 in assay [1] and in assay [2] were 79 nM and 3.9 nM, respectively.

`CC(C)Nc1cnc(-c2nc(C3(c4ccc(-c5cnc(N)nc5)cc4)CCC3)no2)cn1` [Example 197, 5-(4-{1-[5-(5-Isopropylamino-pyrazin-2-yl)-1,2,4-oxadiazol-3-yl]-cyclobutyl}-phenyl)-pyrimidin-2-ylamine]: the concentration for half-maximal inhibition (IC50) in assay [1] was 48 nM; in assay [2], 1.5 nM.

`Nc1ncc(-c2ccc(C3(c4noc(-c5ccc(Cl)nc5)n4)CCC3)cc2)cn1` [Example 101, 5-(4-{1-[5-(6-Chloro-pyridin-3-yl)-1,2,4-oxadiazol-3-yl]-cyclobutyl}-phenyl)-pyrimidin-2-ylamine]: the IC50 in assay [1] was 250 nM; in assay [2], 3.3 nM.

As for `Cc1n[nH]c(C)c1Cc1nc(C2(c3ccc(-c4cnc(N)nc4)cc3)CCC2)no1` [Example 279], the IC50 is > 5000 nM in assay [1] and 29 nM in assay [2].

On to `Nc1ncc(-c2ccc(C3(c4noc(-c5ccnc(Cl)c5)n4)CCC3)cc2)cn1` [Example 56, 5-(4-{1-[5-(2-Chloro-pyridin-4-yl)-1,2,4-oxadiazol-3-yl]-cyclobutyl}-phenyl)-pyrimidin-2-ylamine], for which the IC50 in assay [1] worked out at 990 nM; in assay [2], 8.4 nM.

With `Nc1ncc(-c2ccc(C3(c4noc(-c5nccnc5N)n4)CCC3)cc2)cn1` [Example 19, 5-(4-{1-[5-(3-Amino-pyrazin-2-yl)-1,2,4-oxadiazol-3-yl]-cyclobutyl}-phenyl)-pyrimidin-2-ylamine], the results for the IC50 in assay [1] and in assay [2] were 1400 nM and 11 nM, respectively.

Regarding `Nc1ncc(-c2ccc(C3(c4noc(-c5ccc(N6CC[C@@H](O)C6)nc5)n4)CCC3)cc2)cn1` [Example 103, (R)-1-[5-(3-{1-[4-(2-Amino-pyrimidin-5-yl)-phenyl]-cyclobutyl}-1,2,4-oxadiazol-5-yl)-pyridin-2-yl]-pyrrolidin-3-ol], the IC50 in assay [1] amounted to 63 nM; in assay [2], 1.3 nM.

For the compound `Nc1ncc(-c2ccc(C3(c4noc(-c5ccc6nccn6c5)n4)CCC3)cc2)cn1` [Example 73, 5-{4-[1-(5-Imidazo[1,2-a]pyridin-6-yl-1,2,4-oxadiazol-3-yl)-cyclobutyl]-phenyl}-pyrimidin-2-ylamine], the concentration for half-maximal inhibition (IC50) amounted to 450 nM in assay [1] and 6.8 nM in assay [2].

For `COCCNc1cnc(-c2nc(C3(c4ccc(-c5cnc(N)nc5)cc4)CCC3)no2)cn1` [Example 62, 5-[4-(1-{5-[5-(2-Methoxy-ethylamino)-pyrazin-2-yl]-1,2,4-oxadiazol-3-yl}-cyclobutyl)-phenyl]-pyrimidin-2-ylamine], the IC50 in assay [1] was found to be 13 nM; in assay [2], 1.3 nM.

Regarding `Nc1ncc(-c2ccc(C3(c4noc(-c5cnn(C6CCS(=O)(=O)C6)c5)n4)CCC3)cc2)cn1` (centres unmarked) [Example 226, 5-[4-(1-{5-[1-(1,1-Dioxo-tetrahydro-1lambda6-thiophen-3-yl)-1H-pyrazol-4-yl]-[1,2,4]oxadiazol-3-yl}-cyclobutyl)-phenyl]-pyrimidin-2-ylamine], the IC50 in assay [1] came out at 45 nM; in assay [2], 1.2 nM.

Take `Nc1ncc(-c2ccc(C3(c4noc(N5CCCC5=O)n4)CCC3)cc2)cn1` [Example 26, 1-(3-{1-[4-(2-Amino-pyrimidin-5-yl)-phenyl]-cyclobutyl}-1,2,4-oxadiazol-5-yl)-pyrrolidin-2-one]: the half-inhibitory concentration (IC50) was 1600 nM in assay [1] and 160 nM in assay [2].

In the case of `CC(C)(CO)n1cc(-c2nc(C3(c4ccc(-c5cnc(N)nc5)cc4)CCC3)no2)cn1` [Example 84, 2-[4-(3-{1-[4-(2-Amino-pyrimidin-5-yl)-phenyl]-cyclobutyl}-1,2,4-oxadiazol-5-yl)-pyrazol-1-yl]-2-methyl-propan-1-ol], the figures for the IC50 in assay [1] and in assay [2] were 160 nM and 4 nM, respectively.

For the compound `Cc1ccc(-c2nc(C3(c4ccc(-c5cnc(N)nc5)cc4)CCC3)no2)cc1Cl` [Example 53, 5-(4-{1-[5-(3-Chloro-4-methyl-phenyl)-1,2,4-oxadiazol-3-yl]-cyclobutyl}-phenyl)-pyrimidin-2-ylamine], the half-maximal inhibitory concentration (IC50) in assay [1] is 580 nM; in assay [2], 6.2 nM.

Consider `Cc1ccc(-c2nc(C3(c4ccc(-c5cnc(N)nc5)cc4)CCC3)no2)cn1` [Example 152, 5-(4-{1-[5-(6-Methyl-pyridin-3-yl)-1,2,4-oxadiazol-3-yl]-cyclobutyl}-phenyl)-pyrimidin-2-ylamine], for which the IC50 in assay [1] was 210 nM; in assay [2] it was 3.5 nM.

For the compound `CN(CCO)c1ccc(-c2nc(C3(c4ccc(-c5cnc(N)nc5)cc4)CCC3)no2)nn1` [Example 113, 2-{[6-(3-{1-[4-(2-Amino-pyrimidin-5-yl)-phenyl]-cyclobutyl}-1,2,4-oxadiazol-5-yl)-pyridazin-3-yl]-methyl-amino}-ethanol], the results for the IC50 in assay [1] and in assay [2] were 100 nM and 1.6 nM, respectively.

As for `CC(C)NC(=O)Cn1cc(-c2nc(C3(c4ccc(-c5cnc(N)nc5)cc4)CCC3)no2)cn1` [Example 208, 2-[4-(3-{1-[4-(2-Amino-pyrimidin-5-yl)-phenyl]-cyclobutyl}-[1,2,4]oxadiazol-5-yl)-pyrazol-1-yl]-N-isopropyl-acetamide], the figures for the IC50 in assay [1] and in assay [2] were 52 nM and 2.8 nM, respectively.

Turning to `NC(=O)c1ccc(-c2nc(C3(c4ccc(-c5cnc(N)nc5)cc4)CCC3)no2)cn1` [Example 17, 5-(3-{1-[4-(2-Amino-pyrimidin-5-yl)-phenyl]-cyclobutyl}-1,2,4-oxadiazol-5-yl)-pyridine-2-carboxylic acid amide], the IC50 in assay [1] came to 180 nM; in assay [2], 2.1 nM.

As to `Nc1ncc(-c2ccc(C3(c4noc(-c5cnc(N6CCOCC6)cn5)n4)CCC3)cc2)cn1` [Example 85, 5-(4-{1-[5-(5-Morpholin-4-yl-pyrazin-2-yl)-1,2,4-oxadiazol-3-yl]-cyclobutyl}-phenyl)-pyrimidin-2-ylamine], the IC50 turned out to be 71 nM in assay [1] and 1.3 nM in assay [2].

On to `Nc1ncc(-c2ccc(C3(c4noc(-c5csc(N6CCNCC6)n5)n4)CCC3)cc2)cn1` [Example 266, 5-(4-{1-[5-(2-Piperazin-1-yl-thiazol-4-yl)-[1,2,4]oxadiazol-3-yl]-cyclobutyl}-phenyl)-pyrimidin-2-ylamine], for which the IC50 worked out at 160 nM in assay [1] and 6.5 nM in assay [2].

As for `Cc1ncccc1-c1nc(C2(c3ccc(-c4cnc(N)nc4)cc3)CCC2)no1` [Example 167, 5-(4-{1-[5-(2-Methyl-pyridin-3-yl)-1,2,4-oxadiazol-3-yl]-cyclobutyl}-phenyl)-pyrimidin-2-ylamine], the IC50 was found to be 660 nM in assay [1] and 5.1 nM in assay [2].

Consider `COC1CN(C(=O)Cn2cc(-c3nc(C4(c5ccc(-c6cnc(N)nc6)cc5)CCC4)no3)cn2)C1` [Example 236, 2-[4-(3-{1-[4-(2-Amino-pyrimidin-5-yl)-phenyl]-cyclobutyl}-[1,2,4]oxadiazol-5-yl)-pyrazol-1-yl]-1-(3-methoxy-azetidin-1-yl)-ethanone], for which the IC50 in assay [1] was 230 nM; in assay [2], 5.6 nM.

Take `CN(C)C(=O)Cn1cc(-c2nc(C3(c4ccc(-c5ccc(N)nc5)cc4)CCC3)no2)cn1` [Example 301, 2-[4-(3-{1-[4-(6-Amino-pyridin-3-yl)-phenyl]-cyclobutyl}-[1,2,4]oxadiazol-5-yl)-pyrazol-1-yl]-N,N-dimethyl-acetamide]: the values for the half-maximal inhibitory concentration (IC50) in assay [1] and in assay [2] were 140 nM and 6 nM, respectively.

Take `Nc1ncc(-c2ccc(C3(c4noc(-c5cccnc5N5CCOCC5)n4)CCC3)cc2)cn1` [Example 179, 5-(4-{1-[5-(2-Morpholin-4-yl-pyridin-3-yl)-1,2,4-oxadiazol-3-yl]-cyclobutyl}-phenyl)-pyrimidin-2-ylamine]: the results for the IC50 in assay [1] and in assay [2] were 1400 nM and 12 nM, respectively.

Regarding `CNc1cnc(-c2nc(C3(c4ccc(-c5cnc(N)nc5)cc4)CCC3)no2)cn1` [Example 196, 5-(4-{1-[5-(5-Methylamino-pyrazin-2-yl)-1,2,4-oxadiazol-3-yl]-cyclobutyl}-phenyl)-pyrimidin-2-ylamine], the IC50 in assay [1] was determined as 24 nM; in assay [2], 2.1 nM.

In the case of `CN(C)CCn1cc(-c2nc(C3(c4ccc(-c5cnc(N)nc5)cc4)CCC3)no2)cn1` [Example 240, 5-[4-(1-{5-[1-(2-Dimethylamino-ethyl)-1H-pyrazol-4-yl]-[1,2,4]oxadiazol-3-yl}-cyclobutyl)-phenyl]-pyrimidin-2-ylamine], the half-inhibitory concentration (IC50) in assay [1] stood at 47 nM; in assay [2] it was 3.6 nM.

On to `Nc1ncc(-c2ccc(C3(c4noc(NCCO)n4)CCC3)cc2)cn1` [Example 74, 2-(3-{1-[4-(2-amino-pyrimidin-5-yl)-phenyl]-cyclobutyl}-1,2,4-oxadiazol-5-ylamino)-ethanol], for which the values for the IC50 in assay [1] and in assay [2] were 520 nM and 71 nM, respectively.

Take `Nc1ncc(-c2ccc(C3(c4noc(-c5ccc(S(N)(=O)=O)cc5)n4)CCC3)cc2)cn1` [Example 38, 4-(3-{1-[4-(2-Amino-pyrimidin-5-yl)-phenyl]-cyclobutyl}-1,2,4-oxadiazol-5-yl)-benzenesulfonamide]: the figures for the IC50 in assay [1] and in assay [2] were > 5000 nM and 2.4 nM, respectively.
